Assay results reported in patent US20240287124A1, “PRODRUGS OF 4'-SUBSTITUTED NUCLEOSIDE REVERSE TRANSCRIPTASE INHIBITORS” (Merck Sharp & Dohme LLC, priority 2023, published 2024).

tested on: HIV-1 wild-type (R8) virus; assay: Viral KINetics in Green cells (VIKING) assay, HIV-1 replication in MT4-GFP reporter cells; assay type: cell-based; details: Human immunodeficiency virus 1, 10% normal human serum, MT4-GFP cells, HIV-1 wild-type (R8); read-out: Viking (10% NHS), IC50
Description: Antiviral potency of the compounds was determined based on their ability to block HIV-1 replication in a GFP reporter cell line; this assay is referred to as Viral KINetics in Green cells or VIKING assay. HIV-1 replication was monitored using MT4-gag-GFP clone D3 (hereafter designate MT4-GFP) cells, which are MT4 cells modified to harbor a GFP reporter gene, the expression of which is dependent on the HIV-1 proteins tat and rev. (MT4 is a human T-cell line that is particularly sensitive to HIV-1 replication.) HIV-1 infection of MT4-GFP cells results in GFP expression approximately 24 h post-infection. MT4-GFP cells were maintained at 37° C./5% CO2/90% relative humidity in RPMI 1640 supplemented with 10% fetal bovine serum, 100 U/mL penicillin/streptomycin, and […] G418 to maintain the reporter gene. For infections, MT4-GFP cells were placed in the same medium lacking G418 and infected overnight with HIV-1 wild-type (R8) virus at an approximate multiplicity of infection of 0.01 in the same incubation conditions. Cells were then washed and resuspended in RPMI 1640 containing 10% normal human serum at 2×10^5 cells/mL. Compound plates were prepared by dispensing compounds dissolved in DMSO into wells of 384-well poly D lysine-coated plates (0.2 μl/well) using an ECHO acoustic dispenser. Each compound was tested in a 10-point serial 3-fold dilution (typical final concentrations: 4 μM-0.2 nM). Controls included no inhibitor (DMSO only) and a combination of three antiviral agents as a positive control (efavirenz, indinavir, and an integrase strand transfer inhibitor at final concentrations of 4 μM each). Infected cells were added (50 μL/well) to compound plates and were maintained at 37° C./5% CO2/90% relative humidity. Infected cells were quantified at two time points, approximately 48 h and 72 h post-infection, by counting the number of green cells in each well using an Acumen eX3 scanner. The increase in the number of green cells over ˜24 h period gives the reproductive ratio, R, which is calculated by dividing the number of green cells at 72 h over those at 48 h post-infection. The percent inhibition caused by a test compound is calculated using the following formula: […]
The dose-response curves of each test compound were plotted as % inhibition versus the compound concentration. IC50 values were determined by non-linear 4-parameter fitting of the dose-response curves.

SMILES | IC50 [nM]
C#C[C@]1(CO)O[C@@H](n2ccc3c(N)nc(Cl)nc32)C[C@@H]1OC(=O)CCCCCCCCCCCCCCC [Example 83] | 25
C#C[C@]1(CO)O[C@@H](n2ccc3c(N(C(=O)OCCCCCCCC)C(=O)OCCCCCCCC)nc(Cl)nc32)C[C@@H]1O [Example 224] | 842
C#C[C@]1(CO)O[C@@H](n2ccc3c(NC(=O)CCCCCCC)nc(Cl)nc32)C[C@@H]1O [Example 66, N-(2-chloro-7-((2R,4S,5R)-5-ethynyl-4-hydroxy-5-(hydroxymethyl)tetrahydrofuran-2-yl)-7H-pyrrolo[2,3-d]pyrimidin-4-yl)octanamide] | 197
C#C[C@]1(CO)O[C@@H](n2ccc3c(N)nc(Cl)nc32)C[C@@H]1OC(=O)[C@H](C)c1ccccc1 [Example 99] | 29
C#C[C@]1(CO)O[C@@H](n2ccc3c(NC(=O)OCCCCCCCC)nc(Cl)nc32)C[C@@H]1O [Example 223] | 411
C#C[C@]1(CO)O[C@@H](n2ccc3c(N)nc(Cl)nc32)C[C@@H]1OC(=O)OCC12CC(C1)C2 [Example 110] | 2.7
C#C[C@]1(COC(=O)OCC23CC(C2)C3)O[C@@H](n2ccc3c(N)nc(Cl)nc32)C[C@@H]1OC(=O)OCCC12CC3CC(CC(C3)C1)C2 [Example 175] | 34
C#C[C@]1(COC(=O)OCC23CC(C2)C3)O[C@@H](n2ccc3c(N)nc(Cl)nc32)C[C@@H]1O [Example 168] | 3.9
C#C[C@]1(COC(=O)C23CC(C2)C3)O[C@@H](n2ccc3c(N)nc(Cl)nc32)C[C@@H]1OC(=O)OCCC12CC3CC(CC(C3)C1)C2 [Example 109] | 21
C#C[C@]1(COC(=O)CC23CC(C2)C3)O[C@@H](n2ccc3c(N)nc(Cl)nc32)C[C@@H]1O [Example 97] | 1.6
C#C[C@]1(COCOC(=O)c2ccccc2)O[C@@H](n2ccc3c(N)nc(Cl)nc32)C[C@@H]1OCOC(=O)c1ccccc1 [Example 137] | 4.5
C#C[C@]1(COC(=O)OCCCCCCCC)O[C@@H](n2ccc3c(N)nc(Cl)nc32)C[C@@H]1OC(C)=O [Example 112] | 28
C#C[C@]1(COC(=O)OCc2ccccc2)O[C@@H](n2ccc3c(N)nc(Cl)nc32)C[C@@H]1OC(=O)OCCC12CC3CC(CC(C3)C1)C2 [Example 215] | 44
C#C[C@]1(COC(=O)OCc2ccccc2)O[C@@H](n2ccc3c(NC(=O)CCc4ccccc4)nc(Cl)nc32)C[C@@H]1O [Example 202] | 146
C#C[C@]1(CO)O[C@@H](n2ccc3c(N)nc(Cl)nc32)C[C@@H]1OC(=O)OCc1cccnc1 [Example 166] | 6.7
C#C[C@]1(COC(=O)OCCC23CC(C2)C3)O[C@@H](n2ccc3c(N)nc(Cl)nc32)C[C@@H]1O [Example 170] | 4.3
C#C[C@]1(COC(=O)OCCCCC[C@@H]2SC[C@@H]3NC(=O)N[C@@H]32)O[C@@H](n2ccc3c(N)nc(Cl)nc32)C[C@@H]1OC(=O)OCCC12CC3CC(CC(C3)C1)C2 [Example 176] | 127
C#C[C@]1(COC(=O)CCCCC)O[C@@H](n2ccc3c(N)nc(Cl)nc32)C[C@@H]1OC(=O)OCc1cccnc1 [Example 192] | 6.5
C#C[C@]1(CO)O[C@@H](n2ccc3c(N)nc(Cl)nc32)C[C@@H]1OCOC(=O)OC(C)C [Example 141] | 3.5
C#C[C@]1(COC(=O)OCc2cccnc2)O[C@@H](n2ccc3c(N)nc(Cl)nc32)C[C@@H]1O [Example 165] | 4.9
C#C[C@]1(COC(=O)Cc2ccc(Cl)cc2)O[C@@H](n2ccc3c(N)nc(Cl)nc32)C[C@@H]1OC(=O)OCCC12CC3CC(CC(C3)C1)C2 [Example 107] | 74
C#C[C@]1(CO)O[C@@H](n2ccc3c(NC(=O)OCCCCCCCCCCCC)nc(Cl)nc32)C[C@@H]1O [Example 219] | 2410
C#C[C@]1(COC(=O)OCCC23CC(C2)C3)O[C@@H](n2ccc3c(N)nc(Cl)nc32)C[C@@H]1OC(=O)OCCC12CC(C1)C2 [Example 169] | 13
C#C[C@]1(CO)O[C@@H](n2ccc3c(NC(=O)OCCCCCC)nc(Cl)nc32)C[C@@H]1O [Example 221] | 710

SMILES | IC50 [nM]
C#C[C@]1(CO)O[C@@H](n2ccc3c(N)nc(Cl)nc32)C[C@@H]1OC(=O)C12CC(C1)C2 [Example 105] | 3.5
C#C[C@]1(COC(=O)O[C@@H](C)c2ccccc2)O[C@@H](n2ccc3c(N)nc(Cl)nc32)C[C@@H]1O [Example 127] | 3.8
C#C[C@]1(CO)O[C@@H](n2ccc3c(NC(=O)OCCCCCCCCCCCCCC)nc(Cl)nc32)C[C@@H]1O [Example 63, Tetradecyl (2-chloro-7-((2R,4S,5R)-5-ethynyl-4-hydroxy-5-(hydroxymethyl)tetrahydrofuran-2-yl)-7H-pyrrolo[2,3-d]pyrimidin-4-yl)carbamate] | 1490
C#C[C@]1(COC(=O)[C@H](C)c2ccccc2)O[C@@H](n2ccc3c(N)nc(Cl)nc32)C[C@@H]1OC(=O)[C@H](C)c1ccccc1 [Example 98] | 91
C#C[C@]1(COC(=O)OCC(C)(C)C)O[C@@H](n2ccc3c(N)nc(Cl)nc32)C[C@@H]1O [Example 123] | 4.1
C#C[C@]1(COC(=O)OCc2ccccc2)O[C@@H](n2ccc3c(NC(=O)CCc4ccccc4)nc(Cl)nc32)C[C@@H]1OC(=O)OCc1ccccc1 [Example 203] | 47
C#C[C@]1(COC(=O)C23CC(C2)C3)O[C@@H](n2ccc3c(N)nc(Cl)nc32)C[C@@H]1OC(=O)C12CC(C1)C2 [Example 104] | 4.1
C#C[C@]1(COCOC(=O)c2ccccc2)O[C@@H](n2ccc3c(N)nc(Cl)nc32)C[C@@H]1OC(=O)c1ccccc1 [Example 138] | 41
C#C[C@]1(COC(=O)[C@@H](C)c2ccccc2)O[C@@H](n2ccc3c(N)nc(Cl)nc32)C[C@@H]1OC(=O)[C@@H](C)c1ccccc1 [Example 103] | 405
C#C[C@]1(COC(=O)OCc2ccc[nH]c2=O)O[C@@H](n2ccc3c(N)nc(Cl)nc32)C[C@@H]1O [Example 209] | 3.9
C#C[C@]1(CO)O[C@@H](n2ccc3c(N)nc(Cl)nc32)C[C@@H]1OC(=O)CC12CC(C1)C2 [Example 96] | 7.1
C#C[C@]1(CO)O[C@@H](n2ccc3c(NC(=O)CCCCCCCCCCCCC)nc(Cl)nc32)C[C@@H]1O [Example 70, N-(2-chloro-7-((2R,4S,5R)-5-ethynyl-4-hydroxy-5-(hydroxymethyl)tetrahydrofuran-2-yl)-7H-pyrrolo[2,3-d]pyrimidin-4-yl)tetradecanamide] | 58
C#C[C@]1(CO)O[C@@H](n2ccc3c(NC(=O)OCc4ccccc4)nc(Cl)nc32)C[C@@H]1O [Example 72, benzyl (2-chloro-7-((2R,4S,5R)-5-ethynyl-4-hydroxy-5-(hydroxymethyl)tetrahydrofuran-2-yl)-7H-pyrrolo[2,3-d]pyrimidin-4-yl)carbamate] | 544
C#C[C@]1(CO)O[C@@H](n2ccc3c(N)nc(Cl)nc32)C[C@@H]1OC(=O)OCc1ccc[nH]c1=O [Example 201] | 2.6
C#C[C@]1(CO)O[C@@H](n2ccc3c(N)nc(Cl)nc32)C[C@@H]1OC(=O)[C@@H](C)c1ccccc1 [Example 102] | 43
C#C[C@]1(COC(=O)OCC23CC(C2)C3)O[C@@H](n2ccc3c(N)nc(Cl)nc32)C[C@@H]1OC(=O)OCC12CC(C1)C2 [Example 167] | 7.2
C#C[C@]1(CO)O[C@@H](n2ccc3c(NC(=O)OCCCCCCCCCC)nc(Cl)nc32)C[C@@H]1O [Example 71, Decyl(2-chloro-7-((2R,4S,5R)-5-ethynyl-4-hydroxy-5-(hydroxymethyl)tetrahydrofuran-2-yl)-7H-pyrrolo[2,3-d]pyrimidin-4-yl)carbamate] | 785
C#C[C@]1(COC(=O)CCCCCCCC)O[C@@H](n2ccc3c(N)nc(Cl)nc32)C[C@@H]1O [Example 118] | 4.3
C#C[C@]1(CO)O[C@@H](n2ccc3c(NC(=O)OCC4CCCCC4)nc(Cl)nc32)C[C@@H]1O [Example 150] | 740
C#C[C@]1(CO)O[C@@H](n2ccc3c(N)nc(Cl)nc32)C[C@@H]1OC(=O)OCC [Example 155] | 29
C#C[C@]1(COC(=O)C23CC(C2)C3)O[C@@H](n2ccc3c(N)nc(Cl)nc32)C[C@@H]1O [Example 106] | 2.5
C#C[C@]1(COC(=O)O[C@H](C)c2ccccc2)O[C@@H](n2ccc3c(N)nc(Cl)nc32)C[C@@H]1O [Example 125] | 3.7
C#C[C@]1(COC(=O)OCc2ccn(C)c(=O)c2)O[C@@H](n2ccc3c(N)nc(Cl)nc32)C[C@@H]1O [Example 131] | 3.5
C#C[C@]1(COC(=O)CC23CC(C2)C3)O[C@@H](n2ccc3c(N)nc(Cl)nc32)C[C@@H]1OC(=O)OCCC12CC3CC(CC(C3)C1)C2 [Example 108] | 20
